# Reference: patent US7868031B2, “Propionamide compounds as antiinflammatory agents” (Roche Palo Alto LLC, priority 2005, dated 2011)
# Target: T1, Human recombinant purified glucocorticoid receptor (Homo sapiens, UniProt P04150)
# T1 sequence (P04150 1-777): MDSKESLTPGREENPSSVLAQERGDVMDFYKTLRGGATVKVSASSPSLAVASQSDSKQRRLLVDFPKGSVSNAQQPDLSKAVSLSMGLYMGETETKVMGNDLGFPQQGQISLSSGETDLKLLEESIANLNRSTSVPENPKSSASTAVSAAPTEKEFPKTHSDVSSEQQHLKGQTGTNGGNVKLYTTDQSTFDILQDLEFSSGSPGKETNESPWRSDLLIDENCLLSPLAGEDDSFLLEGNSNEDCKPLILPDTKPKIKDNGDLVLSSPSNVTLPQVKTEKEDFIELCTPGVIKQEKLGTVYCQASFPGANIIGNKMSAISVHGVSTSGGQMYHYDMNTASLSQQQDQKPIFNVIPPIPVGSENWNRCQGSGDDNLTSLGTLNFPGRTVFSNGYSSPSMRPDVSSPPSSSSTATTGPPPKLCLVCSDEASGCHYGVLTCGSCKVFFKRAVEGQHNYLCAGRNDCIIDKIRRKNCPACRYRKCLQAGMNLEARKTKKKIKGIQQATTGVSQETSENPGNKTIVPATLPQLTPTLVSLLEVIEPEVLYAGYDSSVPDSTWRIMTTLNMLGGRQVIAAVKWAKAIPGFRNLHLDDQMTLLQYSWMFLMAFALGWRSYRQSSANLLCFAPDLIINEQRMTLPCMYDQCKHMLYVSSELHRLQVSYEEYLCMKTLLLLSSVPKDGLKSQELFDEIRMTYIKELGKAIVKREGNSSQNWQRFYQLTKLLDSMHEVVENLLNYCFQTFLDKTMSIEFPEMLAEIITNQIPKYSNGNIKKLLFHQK
# Experiment: Glucocorticoid receptor competitive binding assay (3H-dexamethasone)
# Conditions: competition with 2 nM 3H-dexamethasone; GR at 1 nM; 4° C. overnight; read-out: Binding Affinity Ki
# Protocol: The affinity of glucocorticoid receptor antagonists for the glucocorticoid receptor was determined in competitive binding assays by the ability of the antagonist to compete with tritiated dexamethasone. All assay steps were performed on ice in 96-well plates. Binding buffer contained 10 mM potassium phosphate pH 7.4, 20 mM Na2Mo4, 100 μM EDTA, 2% DMSO, and 5 mM DTT. Human recombinant purified glucocorticoid receptor was used at 1 nM. Compounds tested had up to 2% DMSO final concentration. Non-specific binding condition was 1 μM dexamethasone. The radioligand used for the competition assay was 2 nM ^3H-dexamethasone (83 Ci/mmol stock solution). Buffer, compounds or vehicles, GR, and radioligand were incubated at 4° C. overnight. Unifilter GF/B 96-well filter plates were treated with 0.5% PEI after incubation. Samples were transferred to filter plates by a cell harvester.
# Filter plates were washed five times with 50 mM Tris pH 7.5 and 5 mM EDTA wash buffer. Samples were dried at 65° C. for about 1 hr. Scintillation fluid was added to filter plates at 50 μL/well and ^3H cpm were measured on a TopCount scintillation counter.
row,Ki [nM],Structure (SMILES)
1,13.5,"O=C(Nc1cccc(-c2cnco2)c1)C(O)(CC1(c2ccccc2C(F)(F)F)CCC1)C(F)(F)F (stereo not shown) [Example 2, 3,3,3-Trifluoro-2-hydroxy-N-(3-oxazol-5-yl-phenyl)-2-[1-(2-trifluoromethyl-phenyl)-cyclobutylmethyl]-propionamide]"
2,555,"CCOC(=O)C(O)c1ccc(NC(=O)C(O)(CC2(c3ccccc3C(F)(F)F)CCC2)C(F)(F)F)cc1 (stereo not shown) [Example 4, Hydroxy-(4-{3,3,3-trifluoro-2-hydroxy-2-[1-(2-trifluoromethyl-phenyl)-cyclobutylmethyl]-propionylamino}-phenyl)-acetic acid ethyl ester]"
3,25.2,"Cc1noc(-c2ccc(NC(=O)C(O)(CC3(c4ccccc4C(F)(F)F)CCC3)C(F)(F)F)cc2)n1 (stereo not shown) [Example 3, 3,3,3-Trifluoro-2-hydroxy-N-[4-(3-methyl-[1,2,4]oxadiazol-5-yl-)-phenyl]-2-[1-(2-trifluoromethyl-phenyl)-cyclobutylmethyl]-propionamide]"
4,161,"O=C(Nc1ccc(-c2ncco2)cc1)C(O)(CC1(c2ccccc2C(F)(F)F)CCC1)C(F)(F)F (stereo not shown) [Example 1, 3,3,3-Trifluoro-2-hydroxy-N-(4-oxazol-2-yl-phenyl)-2-[1-(2-trifluoromethyl-phenyl)-cyclobutylmethyl]-propionamide]"
